Columns and labels:
[1] = molecular target: T1, human GLP-1R receptor (Homo sapiens, UniProt P43220, L260F); assay: CHOK1 GLP-1R cAMP assay (HTRF); type: cell-based; conditions: CHO-K1 cells stably expressing human GLP-1R
T1 construct: expressed in transfected cells; host or cells: CHO-K1 (ATCC CCL-61)
Method: A cell line stably expressing the human GLP-1R receptor (NM_002062.5, including the naturally-occurring variant Leu260Phe) in a CHO-K1 (ATCC® CCL-61™) was used for assay.
GLP-1 receptor mediated agonist activity was determined in a cell-based assay measuring cyclic adenosine monophosphate (cAMP) levels in cells using Homogeneous Time-Resolved Fluorescence (HTRF) cAMP detection kit (CisBio catalog #62AM4PEC, cAMP Gs Dynamic range kit). The cAMP detection method is based on a competitive immunoassay, in which cAMP produced by the cells and cAMP labeled with the dye d2 compete for binding to a Europium-Cryptate-labeled anti-cAMP antibody. The specific HTRF signal is inversely proportional to the concentration of cAMP.
Compounds were added to individual well in 384 well-assay plates (Greiner #784076) using an Echo (LabCyte) dispenser from 10 mM stocks. Varying concentration of compounds were added to wells, and DMSO was used to normalize each well to a volume of 100 nL. A dose response curve of GLP-1(7-36)NH2 (Bachem H-6795) was included in each run. 5 μL of cAMP concentration response standards are applied in specified wells in the assay plates. Cryo-preserved cells are thawed and resuspended in assay buffer pre-heated to 37° C. (20 mM 2-[4-(2-hydroxyethyl)piperazin-1-yl]ethanesulfonic acid (HEPES) pH 7.4, lx Hank's Balanced Salt Solution (HBSS, Life Technologies #14065) supplemented with 0.1% (w/v) bovine serum albumin (Sigma, A-7030)). Cells were centrifuged at 250*g for 5 min at rt, and resuspended in room tempered assay buffer to a final density of 0.16*10^6 cell/mL, to deliver 800 cells/well. 5 μL of assay buffer with 1 mM 3-isobutyl-1-methylxanthin (IBMX; Sigma cat I-7018) was dispensed per well in assay plates using a multidrop combi (Thermo Scientific) subsequently 5 μL of cell suspension was distributed to relevant wells in the assay using a multidrop dispenser. Assay plates were incubated 20 min at rt.
Detection reagents, Europium-Cryptate-labeled anti-cAMP antibody and cAMP labeled with the dye d2, are diluted in lysis buffer, provided by the manufacturer. 5 μL of each detection reagent is supplemented to each assay well using a multidrop dispenser. Assay plates are incubated in the dark for at least one h. The HTRF signal is measured using the HTRF module (excitation: 337 nm, emission A: 665 nm and emission B: 620 nm) in Pherastar FSX (BMG Labtech).
Raw data were converted to pM cAMP using the cAMP standard curve included in each run. Converted data were further analyzed in Genedata Screener (Genedata) and EC50 determinations were made from agonist dose-response curves analyzed with a curve fitting program using a 4-parameter logistic dose response equation (Equation y=A+((B−A)/1+((C/x)^D))) where A is no stimulation, B is full stimulation, C is the EC50 and D is the Hill slope). The percent effect was determined relative to a saturating concentration of a full GLP-1R agonist (GLP-1(7-36)NH2 has 100% effect in this assay setup).

[2] = molecular target: T2, GLP-1R (Homo sapiens, UniProt P43220); assay: EndoC cAMP accumulation assay (HTRF, EndoC-βH1 cells); type: cell-based; conditions: EndoC-βH1 human pancreatic β cell line
T2 construct: host or cells: EndoC-βH1
Excerpt: EndoC cAMP Accumulation Assay
A HTRF cAMP assay (cAMP Gs dynamic kit; CisoBio Cat #62AM4PEJ) was used to identify agonists of GLP-1R in a pancreatic insulinoma cell line (EndoC-PH1). […] EndoC-βH1 cells have detectable GLP-1R messenger ribonucleic acid (mRNA) as detected by quantitative polymerase chain reaction (qPCR). […] The EndoC-βH1 cell line is a valid model of human beta cells and applicable for screenings to identify novel drug target candidates (Mol. Metab., 2018, 8, 144-157). CisBio HTRF cAMP kits are based on a competitive immunoassay using cryptate-labelled anti-cAMP antibody and d2-labeled cAMP. The detection kit is intended for the direct quantitative determination of cAMP. The specific signal (i.e. energy transfer) is inversely proportional to the concentration of cAMP in the standard or sample. Test compounds (10 mM in DMSO) were diluted into assay buffer (HBSS (Sigma #H8264) supplemented with 25 mM HEPES (Gibco #15630, pH 7.4), 0.1% BSA (Sigma #A3059) and 0.5 mM IBMX (Sigma #I7018) included fresh on the day of the assay) into 96 well U-bottom plates (Greiner #650201). Diluted compounds were transferred to ECHO source polypropelene plates (Labcyte #P-05525) and dose response curves were dispensed acoustically using ECHO 550 into black shallow-well u-bottom 384-well HTRF Assay Plates (Corning 4514).
Cryovials of EndoC-H1 (supplied at 1×10e^7 cells/vial) were used directly for screening. The cryovials and were removed from N2(l) and thawed rapidly in a 37° C. water bath. The cells were resuspended in assay buffer and centrifuged at 300 g for 5 min. Cells were resuspended in assay buffer at the appropriate concentration, typically at 12e5 cells per mL (3000 cells per well, dependent on cell batch) and 2.5 μL diluted cells were added to all wells of destination plate by Multidrop combi reagent dispenser (Thermofisher). The plates were incubated at rt for 30 min. The assay was stopped by adding 2.5 μL anti-cAMP cryptate solution to all wells and 2.5 μL cAMP-d2 solution (both diluted 1:20 in lysis buffer) to columns 1-22 by Combi drop. A volume of 2.5 μL cAMP-d2 solution was added to wells E23 to P24 and 2.5 μL lysis buffer added to wells A23 to D24 by multichannel pipette. The plates were incubated at rt for 1 h and read on an Envision plate reader using excitation wavelength of 320 nm and emission of 590 nm and 660 nm.
Raw data from Envision is converted to % DeltaF according to the manufacturer's instructions. Dose response curves are analysed via 4-Parameter Logistical Analysis and assay plate Z′ values obtained. Samples are graphed as percentage (%) activation plots compared to GIP (1-42, Bachem H-5645) with assay window defined by negative control as basal cell cAMP levels and positive control are defined by maximum GIP (82.5 nM) signal. GLP-1 (7-36 amide, Bachem H-6795) dose response curve was included on all plates.

T2 sequence (P43220 24-463): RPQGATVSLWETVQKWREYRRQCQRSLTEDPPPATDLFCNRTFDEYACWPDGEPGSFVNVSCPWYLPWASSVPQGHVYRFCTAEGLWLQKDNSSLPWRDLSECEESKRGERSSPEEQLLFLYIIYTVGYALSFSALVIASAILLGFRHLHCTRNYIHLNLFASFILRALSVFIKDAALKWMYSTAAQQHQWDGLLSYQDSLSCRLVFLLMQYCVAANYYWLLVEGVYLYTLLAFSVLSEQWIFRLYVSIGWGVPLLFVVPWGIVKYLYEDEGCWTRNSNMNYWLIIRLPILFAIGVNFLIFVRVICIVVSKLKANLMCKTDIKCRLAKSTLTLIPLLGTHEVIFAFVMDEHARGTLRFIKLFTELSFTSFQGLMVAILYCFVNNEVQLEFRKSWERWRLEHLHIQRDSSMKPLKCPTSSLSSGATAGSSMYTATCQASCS
T1 sequence (P43220 24-463 L260F): as the sequence (P43220 24-463) above, with L237F counted along it

Compound | EC50 [1] | EC50 [2]
N#Cc1ccc(COc2cccc(N3CCN(Cc4nc5ccc(C(=O)O)c(Cl)c5n4C[C@@H]4CCO4)[C@H]4CC[C@H]43)n2)c(F)c1 (single isomer, unassigned) [Example 8a] | 6.1 nM | 28 nM
N#Cc1ccc(COc2cccc(N3CCN(Cc4nc5ccc(C(=O)O)c(Cl)c5n4C[C@@H]4CCO4)[C@H]4CC[C@H]43)n2)c(F)c1 (single isomer, unassigned) [Example 8c] | 140 nM | 620 nM
N#Cc1ccc(COc2cccc(N3CCN(Cc4nc5cc(F)c(C(=O)O)cc5n4C[C@@H]4CCO4)[C@H]4CC[C@@H]43)n2)c(F)c1 (single isomer, unassigned) [Example 9a] | 180 nM | 69 nM
CCn1cncc1Cn1c(CN2CCN(c3cccc(OCc4ccc(Cl)cc4F)n3)[C@H]3CC[C@@H]32)nc2c(OC)cc(C(=O)O)cc21 (single isomer, unassigned) [Example 12b] | 8.9 nM | 16 nM
COc1cc(C(=O)O)cc2c1nc(CN1CCN(c3cccc(OCc4ccc(Cl)cc4F)n3)[C@@H]3COC[C@@H]31)n2C[C@@H]1CCO1 (single isomer, unassigned) [Example 16b, 2-(((4aR*,7aS*)-4-(6-((4-Chloro-2-fluorobenzyl)oxy)pyridin-2-yl)hexahydrofuro[3,4-b]pyrazin-1(2H)-yl)methyl)-4-methoxy-1-(((S)-oxetan-2-yl)methyl)-1H-benzo[d]imidazole-6-carboxylic acid] | 64 nM | 120 nM
O=C(O)c1cc(F)c2nc(CN3CCN(c4cccc(OCc5ccc(Cl)cc5F)n4)[C@@H]4COC[C@@H]43)n(C[C@H]3CCOC3)c2c1 (single isomer, unassigned) [Example 18a] | 110 nM | 89 nM
O=C(O)c1cc(F)c2nc(CN3CCN(c4cccc(OCc5ccc(Cl)cc5F)n4)[C@@H]4COC[C@@H]43)n(C[C@@H]3CCO3)c2c1 (single isomer, unassigned) [Example 19b, 2-(((4aR*,7aS*)-4-(6-((4-Chloro-2-fluorobenzyl)oxy)pyridin-2-yl)hexahydrofuro[3,4-b]pyrazin-1(2H)-yl)methyl)-4-fluoro-1-(((S)-oxetan-2-yl)methyl)-1H-benzo[d]imidazole-6-carboxylic acid] | 120 nM | 290 nM
O=C(O)c1ccc2nc(CN3CCN(c4cccc(OCc5ccc(Cl)cc5F)n4)[C@@H]4COC[C@@H]43)n(Cc3cocn3)c2c1 (single isomer, unassigned) [Example 20] | 35 nM | 37 nM
O=C(O)c1cc(Cl)c2nc(CN3CCN(c4cccc(OCc5ccc(Cl)cc5F)n4)[C@@H]4COC[C@@H]43)n(C[C@@H]3CCO3)c2c1 (single isomer, unassigned) [Example 22a, 4-Chloro-2-(((4aR*,7aS*)-4-(6-((4-chloro-2-fluorobenzyl)oxy)pyridin-2-yl)hexahydrofuro[3,4-b]pyrazin-1(2H)-yl)methyl)-1-(((S)-oxetan-2-yl)methyl)-1H-benzo[d]imidazole-6-carboxylic acid] | 1 nM | 6.6 nM
Cc1nccn1CCn1c(CN2CCN(c3cccc(OCc4ccc(Cl)cc4F)n3)[C@@H]3COC[C@@H]32)nc2c(F)cc(C(=O)O)cc21 (single isomer, unassigned) [Example 23] | 170 nM | 110 nM
Cc1nccn1CCn1c(CN2CCN(c3cccc(OCc4ccc(Cl)cc4F)n3)[C@@H]3COC[C@@H]32)nc2ccc(C(=O)O)cc21 (single isomer, unassigned) [Example 25a] | 110 nM | 170 nM
Cc1nccn1CCn1c(CN2CCN(c3cccc(OCc4ccc(Cl)cc4F)n3)[C@@H]3COC[C@@H]32)nc2ccc(C(=O)O)cc21 (single isomer, unassigned) [Example 25b] | 250 nM | 1100 nM

More lines, in order of falling EC50 [1], values ahead:

EC50 [1] | EC50 [2] | Compound
250 nM | 340 nM | Cc1nccn1CCn1c(CN2CCN(c3cccc(OCc4ccc(Cl)cc4F)n3)[C@@H]3COC[C@@H]32)nc2c(Cl)cc(C(=O)O)cc21 (single isomer, unassigned) [Example 24]
150 nM | 270 nM | O=C(O)c1cc(Cl)c2nc(CN3CCN(c4cccc(OCc5ccc(Cl)cc5F)n4)[C@@H]4COC[C@@H]43)n(C[C@@H]3CCO3)c2c1 (single isomer, unassigned) [Example 22b, 4-Chloro-2-(((4aR*,7aS*)-4-(6-((4-chloro-2-fluorobenzyl)oxy)pyridin-2-yl)hexahydrofuro[3,4-b]pyrazin-1(2H)-yl)methyl)-1-(((S)-oxetan-2-yl)methyl)-1H-benzo[d]imidazole-6-carboxylic acid]
74 nM | 71 nM | O=C(O)c1ccc2nc(CN3CCN(c4cccc(OCc5ccc(Cl)cc5F)n4)[C@@H]4COC[C@@H]43)n(Cc3cccnc3)c2c1 (single isomer, unassigned) [Example 21]
57 nM | 15 nM | O=C(O)c1cc(F)c2nc(CN3CCN(c4cccc(OCc5ccc(Cl)cc5F)n4)[C@@H]4COC[C@@H]43)n(C[C@H]3CCOC3)c2c1 (single isomer, unassigned) [Example 18b]
28 nM | 41 nM | N#Cc1ccc(COc2cccc(N3CCN(Cc4nc5ccc(C(=O)O)c(Cl)c5n4C[C@@H]4CCO4)[C@H]4CC[C@H]43)n2)c(F)c1 (single isomer, unassigned) [Example 8b]

Reference: US20250115612A1, “CERTAIN 2,5-DIAZABICYCLO[4.2.0]OCTANES AND OCTAHYDROFURO[3,4-B]PYRAZINES AS GLP-1 RECEPTOR MODULATORS” (ASTRAZENECA AB, priority 2021, published 2025)
